Measured values as given in ChEMBL document CHEMBL1201862, “PubChem BioAssay data set” (2004).
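Briefly, cells in 96-well plates were exposed to five compound concentrations for 48 h, and endpoints were estimated by linear interpolation. At the GI50, growth is halved.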 Calls of active or inactive are those of the source. Rule as the data show it: active = GI50 up to about 1.1 µM and inactive = higher.

Experiments:
Experiment in all cases: DTP human tumour cell line panel, 48 h
SNB-75 = test system: SNB-75
RPMI-8226 = test system: RPMI-8226
NCI-H23 = test system: NCI-H23
UACC-62 = test system: UACC-62
OVCAR-8 = test system: OVCAR-8
ACHN = test system: ACHN
SN12C = test system: SN12C
SF-539 = test system: SF-539
SW-620 = test system: SW-620
SF-268 = test system: SF-268
HOP-62 = test system: HOP-62
K562 = test system: K562
A549 = test system: A549
SK-MEL-28 = test system: SK-MEL-28
SK-OV-3 = test system: SK-OV-3
NCI-H522 = test system: NCI-H522
SR = test system: SR

SMILES | GI50 (SNB-75) | GI50 (RPMI-8226) | GI50 (NCI-H23) | GI50 (UACC-62) | GI50 (OVCAR-8) | GI50 (ACHN) | GI50 (SN12C) | GI50 (SF-539) | GI50 (SW-620) | GI50 (SF-268) | GI50 (HOP-62) | GI50 (K562) | GI50 (A549) | GI50 (SK-MEL-28) | GI50 (SK-OV-3) | GI50 (NCI-H522) | GI50 (SR)
CC1(C)c2ccccc2C(C)(C)C(C(=O)Nc2ccccc2)C1C(=O)O (stereo not drawn) | > 100 µM (inactive) | > 100 µM (inactive) | > 100 µM (inactive) | > 100 µM (inactive) | > 100 µM (inactive) | > 100 µM (inactive) | > 100 µM (inactive) | > 100 µM (inactive) | > 100 µM (inactive) | > 100 µM (inactive) | > 100 µM (inactive) | > 100 µM (inactive) | > 100 µM (inactive) | > 100 µM (inactive) | > 100 µM (inactive) | > 100 µM (inactive) | 
CCCCC1=CSC(c2ccccc2)=C(c2ccccc2)S1 | 57 µM (inactive) | 9.23 µM (inactive) | 36.1 µM (inactive) | 40.5 µM (inactive) | 73.8 µM (inactive) |  | 97.5 µM (inactive) | > 100 µM (inactive) | 69 µM (inactive) |  |  | 8.83 µM (inactive) | 64.1 µM (inactive) | 63.5 µM (inactive) | > 100 µM (inactive) |  | 
N=S(c1ccccc1[N+](=O)[O-])c1ccccc1[N+](=O)[O-] | 6.34 µM (inactive) | 2.08 µM (inactive) | 5.26 µM (inactive) | 4.34 µM (inactive) | 3.65 µM (inactive) | 1.77 µM (inactive) | 1.72 µM (inactive) | 4.58 µM (inactive) |  | 2.37 µM (inactive) | 5.96 µM (inactive) |  | 6.67 µM (inactive) | 3.7 µM (inactive) | 6.27 µM (inactive) | 0.561 µM (active) | 
CC1C=CC(=O)C(n2cc(F)c(=O)[nH]c2=O)O1 (stereo not drawn) | 18.8 µM (inactive) | 14.4 µM (inactive) | 18.1 µM (inactive) | 16.2 µM (inactive) | 22.4 µM (inactive) | 20 µM (inactive) | 18.4 µM (inactive) | 17.2 µM (inactive) | 17.6 µM (inactive) |  | 20.8 µM (inactive) | 17.7 µM (inactive) | 24.4 µM (inactive) | 23.4 µM (inactive) | 27.7 µM (inactive) |  | 
CC1Cc2c(N)nc(N3CCOCC3)nc2NC1=O (stereo not drawn) | 5.53 µM (inactive) | > 100 µM (inactive) | > 100 µM (inactive) | > 100 µM (inactive) | > 100 µM (inactive) | > 100 µM (inactive) | > 100 µM (inactive) | > 100 µM (inactive) | > 100 µM (inactive) |  | > 100 µM (inactive) | > 100 µM (inactive) | > 100 µM (inactive) | > 100 µM (inactive) | > 100 µM (inactive) | > 100 µM (inactive) | 
COc1ccc(NC(=O)CC(=O)n2nc(C)c(/N=N/c3ccccc3C(=O)O)c2C)cc1 | 33 µM (inactive) | > 100 µM (inactive) | > 100 µM (inactive) | > 100 µM (inactive) | > 100 µM (inactive) |  | > 100 µM (inactive) | > 100 µM (inactive) | > 100 µM (inactive) | > 100 µM (inactive) | > 100 µM (inactive) | > 100 µM (inactive) | > 100 µM (inactive) | > 100 µM (inactive) | 40.3 µM (inactive) | > 100 µM (inactive) | 
Cc1ccc2c(c1)C1(OC(=O)c3ccccc31)c1ccc(F)cc1O2 (stereo not drawn) |  | 24.2 µM (inactive) |  | 70.6 µM (inactive) | > 100 µM (inactive) |  | > 100 µM (inactive) |  | 34.6 µM (inactive) | 68.4 µM (inactive) | > 100 µM (inactive) | 35 µM (inactive) | 48.9 µM (inactive) |  | > 100 µM (inactive) | 23.9 µM (inactive) | 25.5 µM (inactive)
COC(=O)C1=C2CCC(=O)[C@@]2(C)C(OC(C)=O)C=CC1 (stereo partly drawn) | 56.8 µM (inactive) | 34.6 µM (inactive) | 76.9 µM (inactive) | 76.6 µM (inactive) | 43 µM (inactive) | > 100 µM (inactive) | > 100 µM (inactive) | 49.3 µM (inactive) | 36.4 µM (inactive) |  | > 100 µM (inactive) | 30.8 µM (inactive) | > 100 µM (inactive) | > 100 µM (inactive) | > 100 µM (inactive) |  | 
Cn1cnc([N+](=O)[O-])c1Sc1nc2cc([N+](=O)[O-])ccc2[nH]1 | 26.2 µM (inactive) | 21.6 µM (inactive) | 23.8 µM (inactive) | 11.9 µM (inactive) | 14.7 µM (inactive) | 36.5 µM (inactive) | > 10 µM (inactive) | 19.1 µM (inactive) | 27.9 µM (inactive) | 19.9 µM (inactive) | > 100 µM (inactive) | 24.8 µM (inactive) | 29.3 µM (inactive) | 15.3 µM (inactive) | 22 µM (inactive) |  | 9.29 µM (inactive)
CCCCc1ccc(-n2c3nc(=O)n(C)c(=O)c-3nc3ccccc32)cc1 | 15.3 µM (inactive) | 13.7 µM (inactive) | 2.37 µM (inactive) | 1.77 µM (inactive) | 7.57 µM (inactive) | 10.7 µM (inactive) | 7.35 µM (inactive) | 14.1 µM (inactive) | 6.18 µM (inactive) | 10.1 µM (inactive) | 18.2 µM (inactive) | 12.4 µM (inactive) | 5.61 µM (inactive) |  | 37.7 µM (inactive) | 7.6 µM (inactive) | 
